# Data from patent US5859257A, “Isoxazole compounds as cyclooxygenase inhibitors” (G. D. Searle & Co., priority 1996, dated 1999).
# Key:
# [1] = biological target: COX-1; assay: Evaluation of COX-1 activity in vitro (PGE2 ELISA, recombinant enzyme); format: biochemical, human or murine; conditions: arachidonic acid 10 μM, pH 8.0, pre-incubation 10-20 minutes
# Description: (§1) a. Preparation of recombinant COX baculoviruses
# (§2) Recombinant COX-1 and COX-2 were prepared as scribed by Gierse et al, [J. Biochem., 305, 479-84 (1995)]. […] Recombinant baculoviruses were isolated by transfecting 4 μg of baculovirus transfer vector DNA into SF9 insect cells (2×10^8) along with 200 ng of linearized baculovirus plasmid DNA by the calcium phosphate method. See M. D. Summers and G. E. Smith, A Manual of Methods for Baculovirus Vectors and Insect Cell Culture Procedures, Texas Agric. Exp. Station Bull. 1555 (1987). Recombinant viruses were purified by three rounds of plaque purification and high titer (10^7 -10^8 pfu/mL) stocks of virus were prepared. For large scale production, SF9 insect cells were infected in 10 liter fermentors (0.5×10^6 /mL) with the recombinant baculovirus stock such that the multiplicity of infection was 0.1. After 72 hours the cells were centrifuged and the cell pellet homogenized in Tris/Sucrose (50 mM: 25%, pH 8.0) containing 1% 3-[(3-cholamidopropyl)dimethylammonio]-1-propanesulfonate (CHAPS). The nomogenate was centrifuged at 10,000×G for 30 minutes, and the resultant supernatant was stored at -80° C. before being assayed for COX activity.
# (§3) COX activity was assayed as PGE2 formed/μg protein/time using an ELISA to detect the prostaglandin released. CHAPS-solubilized insect cell membranes containing the appropriate COX enzyme were incubated in a potassium phosphate buffer (50 mM, pH 8.0) containing epinephrine, phenol, and heme with the addition of arachidonic acid (10 μM). […] Any reaction between the arachidonic acid and the enzyme was stopped after ten minutes at 37° C./room temperature by transferring 40 μl of reaction mix into 160 μl ELISA buffer and 25 μM indomethacin. The PGE2 formed was measured by standard ELISA technology (Cayman Chemical).
# [2] = biological target: COX-2; assay: Evaluation of COX-2 activity in vitro (PGE2 ELISA, recombinant enzyme); format: biochemical, human or murine; conditions: arachidonic acid 10 μM, pH 8.0, pre-incubation 10-20 minutes
# Description: The COX-2 inhibition activity of the compounds of this invention illustrated in the Examples was determined by the following methods.
# as §1, §2, §3
# [3] = test system: rat paw edema; assay: Rat Carrageenan Foot Pad Edema Test; format: in vivo, Male Sprague-Dawley rats; conditions: oral, 3 h after carrageenan
# Description: Rat Carrageenan Foot Pad Edema Test
# Male Sprague-Dawley rats were selected in each group so that the average body weight was as close as possible. Rats were fasted with free access to water for over sixteen hours prior to the test. […] One hour later a subplantar injection of 0.1 mL of 1% solution of carrageenan/sterile 0.9% saline was administered and the volume of the injected foot was measured with a displacement plethysmometer connected to a pressure transducer with a digital indicator. Three hours after the injection of the carrageenan, the volume of the foot was again measured.
# [4] = test system: hyperalgesic foot withdrawal (rat); assay: Rat Carrageenan-induced Analgesia Test; format: in vivo, Male Sprague-Dawley rats; conditions: oral, 3 h after carrageenan
# Description: Rat Carrageenan-induced Analgesia Test
# Male Sprague-Dawley rats were treated as previously described for the Carrageenan Foot Pad Edema test. Three hours after the injection of the carrageenan, the rats were placed in a special plexiglass container with a transparent floor having a high intensity lamp as a radiant heat source, positionable under the floor. After an initial twenty minute period, thermal stimulation was begun on either the injected foot or on the contralateral uninjected foot. A photoelectric cell turned off the lamp and timer when light was interrupted by paw withdrawal. The time until the rat withdraws its foot was then measured. The withdrawal latency in seconds was determined for the control and drug-treated groups, and percent inhibition of the hyperalgesic foot withdrawal determined.
IC50 [1],IC50 [2],SMILES,RAT PAW EDEMA % Inhibition ([3]; *@ 30 mg/kg),ANALGESIA % Inhibition ([4]; *@ 30 mg/kg),RAT PAW EDEMA % Inhibition ([3]; @ 10 mg/kg body weight),ANALGESIA % Inhibition ([4]; @ 10 mg/kg body weight)
> 100 µM,0.2 µM,"CC(C)(O)COCc1onc(-c2ccccc2)c1-c1ccc(S(N)(=O)=O)cc1 [Example 56, 4-[5-(2-Methyl-2-hydroxy-1-n-propyloxymethyl)-3-phenylisoxazol-4-yl]benzenesulfonamide]",29%,27%,–,–
> 100 µM,< 0.1 µM,"NS(=O)(=O)c1ccc(-c2c(-c3ccccc3)noc2CCO)cc1 [Example 66, 4-[5-(2-Hydroxyethyl)-3-phenylisoxazol-4-yl]benzenesulfonamide]",43%,49%,–,–
100 µM,< 0.1 µM,"CCc1noc(-c2ccccc2)c1-c1ccc(S(N)(=O)=O)cc1 [Example 14, 4-[3-Ethyl-5-phenylisoxazol-4-yl]benzenesulfonamide]",–,27%,–,–
> 100 µM,0.1 µM,"CC(C)(O)CCCc1onc(-c2ccccc2)c1-c1ccc(S(N)(=O)=O)cc1 [Example 57, 4-[5-(4-Hydroxy-4-methylpentyl)-3-phenylisoxazol-4-yl]benzenesulfonamide]",23%,5%,–,–
–,–,"Cc1onc(-c2ccccc2)c1-c1ccc(S(N)(=O)=O)cc1 [Example 1, 4-[5-Methyl-3-phenylisoxazol-4-yl]benzenesulfonamide]",–,–,29%,33%
> 100 µM,< 0.1 µM,"NS(=O)(=O)c1ccc(-c2c(-c3ccccc3)noc2C(F)F)cc1 [Example 1j, 4-[5-difluoromethyl-3-phenylisoxazol-4-yl]benzenesulfonamide]",–,–,37%,28%

SMILES,IC50 [1],IC50 [2],RAT PAW EDEMA % Inhibition ([3]; *@ 30 mg/kg),ANALGESIA % Inhibition ([4]; *@ 30 mg/kg),RAT PAW EDEMA % Inhibition ([3]; @ 10 mg/kg body weight),ANALGESIA % Inhibition ([4]; @ 10 mg/kg body weight)
"NS(=O)(=O)c1ccc(-c2c(-c3ccccc3)noc2CO)cc1 [Example 10, 4-[5-Hydroxymethyl-3-phenylisoxazol-4-yl]benzenesulfonamide]",> 100 µM,–,–,–,57%,74%
